The source of these data is patent KR20210056931A, “피리메타민을 유효성분으로 포함하는 면역 관련 질환의 치료 또는 예방용 약학 조성물” (priority 2019, dated 2021).

Series [1] deals with TNF-α. Description: TNF-α expression inhibition in Raw264.7, comparison with tofacitinib, Experiment 2-2. Type of series: cell-based. The note with it: 6 h pretreatment, LPS 10 ng/mL 16 h.
The test system of series [2] is rheumatoid arthritis model, DBA-1J Mice [류마티스 관절염 모델]. Description: Arthritis score in rheumatoid arthritis animal model, dose regimen study, Experiment 6. It counts as in vivo, mouse. The following applies: HCQ 80 mg/kg/day QD PO, PG 25 mg/kg/day QD PO; for Arthritis score: MTX 2 mg/kg/2day PO, TFC 10 mg/kg/day BID PO (G3-G6); for Arthritis score (in words): TFC 10 mg/kg/day BID PO.

Series [3] has the same test system. Description: Paw edema in rheumatoid arthritis animal model, dose regimen study, Experiment 6. Type of series: in vivo, mouse. The following applies: Day 14, MTX 2 mg/kg/2day PO, HCQ 80 mg/kg/day QD PO, PG 25 mg/kg/day QD PO, TFC 10 mg/kg/day BID PO (G3-G6).
The test system is the same in series [4]. Description: Histopathological examination in rheumatoid arthritis animal model, dose regimen study, Experiment 6. Type of series: in vivo, mouse. The following applies: Day 14; MTX 2 mg/kg/2day PO, HCQ 80 mg/kg/day QD PO, PG 25 mg/kg/day QD PO, TFC 10 mg/kg/day BID PO (G3-G6).
Series [5] relates to TNF-α. Kind of series: Plasma TNF-α (ELISA), Experiment 6-5. It counts as in vivo, mouse. The following applies: for Plasma TNF-α: Day 14, MTX 2 mg/kg/2day PO, HCQ 80 mg/kg/day QD PO, PG 25 mg/kg/day QD PO, TFC 10 mg/kg/day BID PO (G3-G6); for Plasma TNF-α (in words): HCQ, PG, TFC groups. (In general: ELISA stands for enzyme-linked immunosorbent assay.)
The subject of series [6] is TNF-α. Description: TNF-α expression inhibition in Raw264.7, comparison with hydroxychloroquine and proguanil, Experiment 2-3. Type of series: cell-based.
In series [7] the test system is TNF-α. Description: TNF-α expression inhibition in Raw264.7, comparison with DMARDs, Experiment 2-1. It counts as cell-based. The following applies: 6 h pretreatment, LPS 10 ng/mL, MTX 344 nM, HCQ 610 nM, PYR 50 ng/mL, CsA 391 ng/mL, AZA 25 ng/mL, SFZ 750 ng/mL.
The test system of series [8] is rheumatoid arthritis model, DBA-1J Mice [류마티스 관절염 모델]. Kind of series: Arthritis score in rheumatoid arthritis animal model, Experiment 5. Type of series: in vivo, mouse. The note with it: G3: MTX 2 mg/kg/2day PO.
Series [9] shares this test system. Description: Paw edema in rheumatoid arthritis animal model, Experiment 5. It counts as in vivo, mouse. The following applies: G3: MTX 2 mg/kg/2day PO.
Series [10] shares this test system. Kind of series: Histopathological examination in rheumatoid arthritis animal model, Experiment 5. It counts as in vivo, mouse. The note with it: Day 14; G3: MTX 2 mg/kg/2day PO.
Series [11] in a line: Hematological examination, Experiment 6-4. Type of series: in vivo, mouse.
[12] abbreviates: Day 14, G3: MTX 2 mpk qd PO, G12: Py 15 mpk qd PO.

Several values for one entry are separate records, joined by “and”; a condition that tells them apart may be missing. Equal values may be shown once.

`C[C@@H]1CCN(C(=O)CC#N)C[C@@H]1N(C)c1ncnc2[nH]ccc12` [토파시티닙]: the TNF-α expression is 535.7 pg/mL with TNF-α [1] (TFN 100 nM) and 538.5 pg/mL with TNF-α [1] (TFN 200 nM). For the same molecule, the Arthritis score in series [2] (Day 0) is 2.5±1.0 total score; in series [2] (Day 2) it was 4.5±1.4 total score; in series [2] (Day 5), 6.5±2.5 total score; in series [2] (Day 7) it was 8.7±2.3 total score; in series [2] (Day 9), 9.0±2.5 total score; in series [2] (Day 12) it was 10.3±2.6 total score. This molecule gave an Arthritis score in series [2] (Day 14) of 11.3±3.3 total score. For the same molecule, in [2], the “Arthritis score (in words)” value is on record as “관절염 지수가 개선되지 않았다”. Further, the “Paw edema, HL, mean” value in series [3] came out at 0.15 mL. The “Paw edema, HR, mean” value in series [3] is recorded as 0.16 mL. Also, in [3] (listed as TFC), the “Paw edema, HL, individual animal” value is 0.13 mL and 0.12 mL and 0.18 mL and 0.14 mL and 0.17 mL. For the same molecule, the “Paw edema, HR, individual animal” value in [3] (listed as TFC) was 0.19 mL and 0.18 mL and 0.13 mL and 0.14 mL and 0.12 mL. In addition, in series [4], the Bone destruction amounted to 2.5±0.5. Besides, the Cartilage damage in series [4] came to 1.8±0.4. Moreover, in series [4], the “Histopathological examination, total” value is 7.3±0.8. Further, in series [4], the Synovium proliferation came to 3.0±0.0. Also, in the series on TNF-α [5], the “Plasma TNF-α” value came out at 885.8 pg/mL. For the same molecule, the “Plasma TNF-α (in words)” value with TNF-α [5] is on record as “혈장 TNF-α가 감소하지 않은”.
As for `[H]/N=C(\N/C(=N/[H])Nc1ccc(Cl)cc1)NC(C)C` [프로구아닐], the TNF-α expression in the series with TNF-α [6] (PY 0.2 uM, HCQ 0.61 uM, PG 5 uM, LPS 10 ng/mL, 24 h co-treatment) turned out to be 988.1. Moreover, the TNF-α expression inhibition entry in the series on TNF-α [6] (drug treatment 2 h or 24 h, pyrimethamine 0.2 μM, proguanil 5 μM) is given as “TNF-α의 발현량을 억제하지 못했고”. The molecule also returned an Arthritis score in series [2] (Day 0) of 2.5±1.0 total score. In series [2] (Day 2), this molecule displayed an Arthritis score of 4.5±1.0 total score. This molecule yielded an Arthritis score in series [2] (Day 5) of 6.7±1.2 total score. Moreover, the Arthritis score in series [2] (Day 7) is recorded as 8.3±1.5 total score. In series [2] (Day 9), the Arthritis score was 9.5±2.2 total score. For the same molecule, the Arthritis score in [2] (Day 12) was determined as 10.2±1.6 total score. Besides, the Arthritis score in [2] (Day 14) turned out to be 11.2±1.2 total score. The “Arthritis score (in words)” value in series [2] is reported as “관절염 지수가 개선되지 않았다”. In series [3], the “Paw edema, HL, mean” value is 0.15 mL and the “Paw edema, HR, mean” value is listed as 0.16 mL. For the same molecule, in series [3] (listed as PG), the “Paw edema, HL, individual animal” value was 0.13 mL and 0.14 mL and 0.16 mL and 0.15 mL and 0.17 mL and 0.12 mL; the “Paw edema, HR, individual animal” value is 0.16 mL and 0.19 mL and 0.14 mL and 0.13 mL. Moreover, in series [4], the Bone destruction is on record as 2.7±0.8; the Cartilage damage is 2.3±0.8; the “Histopathological examination, total” value is listed as 7.8±1.9; the Synovium proliferation was found to be 2.8±0.4. In addition, in the series on TNF-α [5], the “Plasma TNF-α” value stood at 904.4 pg/mL and the “Plasma TNF-α (in words)” value was “혈장 TNF-α가 감소하지 않은”.
For the molecule `O=C(O)c1cc(/N=N/c2ccc(S(=O)(=O)Nc3ccccn3)cc2)ccc1O` [SFZ, Sulfasalazine], the TNF-α expression in the series on TNF-α [7] (2hr) was 280.7 pg/mL; in the series on TNF-α [7] (24hr) it was 3578.2 pg/mL.
In the case of `CN(Cc1cnc2nc(N)nc(N)c2n1)c1ccc(C(=O)N[C@@H](CCC(=O)O)C(=O)O)cc1` [메토트렉세이트, Methotrexate], the TNF-α expression in the series on TNF-α [7] (2hr) came to 312.8 pg/mL. Further, in the series on TNF-α [7] (24hr), the TNF-α expression was determined as 3464.6 pg/mL. The Arthritis score in [8] (Day 0) was 2.3±1.6 Total score. For the same molecule, the Arthritis score in series [8] (Day 2) came out at 2.9±1.8 Total score. In series [8] (Day 4), this molecule showed an Arthritis score of 4.6±2.9 Total score. Moreover, the Arthritis score in [8] (Day 7) is listed as 5.7±2.5 Total score. Also, the Arthritis score in [8] (Day 9) is listed as 6.0±2.4 Total score. Besides, in series [8] (Day 11), the Arthritis score is recorded as 6.6±2.4 Total score. In series [8] (Day 14), the Arthritis score amounted to 6.9±2.5 Total score. For the same molecule, in [9] (Day 0), the “Paw edema, LEFT” value stood at 0.10 ± 0.01 mL and the “Paw edema, RIGHT” value is 0.10 ± 0.01 mL. Besides, in [9] (Day 14), the “Paw edema, LEFT” value came to 0.13 ± 0.04 mL and the “Paw edema, RIGHT” value was determined as 0.16 ± 0.05 mL. Besides, in series [10], the Bone destruction turned out to be 1.3±1.6; the Cartilage damage was found to be 1.0±1.4; the “Histopathological examination, total” value stood at 3.6±4.5; the Synovium proliferation stood at 1.3±1.6. Further, in [2] (Day 0), the Arthritis score worked out at 2.5±1.0 total score. The same molecule had an Arthritis score in [2] (Day 2) of 3.7±1.6 total score. In [2] (Day 5), this molecule yielded an Arthritis score of 5.0±2.4 total score. Further, in [2] (Day 7), the Arthritis score amounted to 6.0±2.9 total score. For the same molecule, the Arthritis score in [2] (Day 9) is 6.3±2.9 total score. This molecule also gave an Arthritis score in series [2] (Day 12) of 7.2±2.7 total score. In series [2] (Day 14), the Arthritis score is given as 7.8±3.4 total score. Further, in series [3], the “Paw edema, HL, mean” value turned out to be 0.16 mL and the “Paw edema, HR, mean” value was 0.16 mL. In addition, in series [3] (listed as MTX), the “Paw edema, HL, individual animal” value is 0.19 mL and 0.16 mL and 0.15 mL and 0.17 mL and 0.18 mL and 0.11 mL; the “Paw edema, HR, individual animal” value was 0.17 mL and 0.14 mL and 0.19 mL and 0.20 mL and 0.13 mL and 0.11 mL. Moreover, in series [4], the Bone destruction is 1.8±1.0; the Cartilage damage is reported as 1.0±0.6; the “Histopathological examination, total” value was 5.7±1.2; the Synovium proliferation worked out at 2.8±0.4. Also, in series [11] (setting [12]), the “%BASO” value came to 0.6±0.3%, the “%EOS” value is 1.8±1.7%, the “%LUC” value stood at 2.8±1.2% and the “%LYM” value was determined as 40.8±9.9%. Also, in [11] (setting [12]), the “%MONO” value is 4.2±1.5%, the “%NEUT” value amounted to 49.8±11.7%, the “%RETIC” value came out at 0.63±1.16% and the HCT turned out to be 38.2±6.0%. Also, in series [11] (setting [12]), the HDW worked out at 2.15 ± 0.13 g/dL, the HGB came out at 10.9 ± 1.7 g/dL, the MCH was found to be 12.8 ± 0.8 pg and the MCV came out at 44.8 ± 2.9 fL. Also, in series [11] (setting [12]), the MPV is 7 ± 0.8 fL, the PLT is reported as 440±386 10^3 cell/μL, the RDW was determined as 23.4±3.7% and the WBC was 4.55±0.52 10^3 cell/μL. For the same molecule, the “Hematotoxicity (in words)” value in series [11] (G3 (MTX)) was “적혈구와 혈소판 수치가 감소하는 독성이 나타났다”. For the same molecule, the “Plasma TNF-α” value with TNF-α [5] was found to be 769.1 pg/mL.
As to `Cn1cnc([N+](=O)[O-])c1Sc1ncnc2nc[nH]c12` [AZA, Azathioprine], the TNF-α expression in the series with TNF-α [7] (2hr) worked out at 405.0 pg/mL; in the series on TNF-α [7] (24hr), 3539.9 pg/mL.
